The record followed here is ChEMBL document CHEMBL4813956, “Cytotoxic Physalins from Aeroponically Grown Physalis acutifolia” (J Nat Prod, 2021).

The subject of series [1] is NCI-H460. Put plainly: Cytotoxicity against human NCI-H460 cells assessed as cell growth inhibition up to 10 uM measured after 24 to 72 hrs by MTT assay relative to control. The series is classed as functional. The note with it: dose microM <=10; time 24-72 hrs. On the technique in general: Tetrazolium assays rely on reduction of a dye to a coloured formazan, in cell work by metabolically active cells.

Series [2] has as its system PC-3. Put plainly: Cytotoxicity against human PC-3 cells assessed as cell growth inhibition up to 10 uM measured after 24 to 72 hrs by MTT assay relative to control. The series is classed as functional. The conditions noted are these: dose microM <=10; time 24-72 hrs.
In series [3] the test system is WI-38. The experiment in a line: Cytotoxicity against human WI-38 cells assessed as cell growth inhibition up to 10 uM measured after 24 to 72 hrs by MTT assay relative to control. The series is classed as cell-based. The note with it: time 24-72 hrs.
The subject of series [4] is SF-268. The experiment in a line: Cytotoxicity against human SF-268 cells assessed as cell growth inhibition up to 10 uM measured after 24 to 72 hrs by MTT assay relative to control. The series is classed as functional. The conditions noted are these: dose microM <=10; time 24-72 hrs.
The subject of series [5] is MCF7. The experiment in a line: Cytotoxicity against human MCF7 cells assessed as cell growth inhibition up to 10 uM measured after 24 to 72 hrs by MTT assay relative to control. The conditions noted are these: dose microM <=10; time 24-72 hrs. The series is classed as functional.
For series [6], the system named is WI-38. Put plainly: Cytotoxicity against human WI-38 cells assessed as cell growth inhibition measured after 24 to 72 hrs by MTT assay. The series is classed as cell-based.
In series [7] the test system is NCI-H460. The experiment in a line: Cytotoxicity against human NCI-H460 cells assessed as cell growth inhibition measured after 24 to 72 hrs by MTT assay. The series is classed as functional, cell-based.
The subject of series [8] is MCF7. The experiment in a line: Cytotoxicity against human MCF7 cells assessed as cell growth inhibition measured after 24 to 72 hrs by MTT assay. The series is classed as functional, cell-based.
In series [9] the test system is PC-3. The experiment in a line: Cytotoxicity against human PC-3 cells assessed as cell growth inhibition measured after 24 to 72 hrs by MTT assay. The series is classed as functional, cell-based.
Series [10] relates to SF-268. The experiment in a line: Cytotoxicity against human SF-268 cells assessed as cell growth inhibition measured after 24 to 72 hrs by MTT assay. The series is classed as functional, cell-based.
In series [11] the test system is SF-268. The experiment in a line: Cytotoxicity against human SF-268 cells assessed as cell growth inhibition measured after 24 to 72 hrs in presence of 5beta,6beta-epoxy-2,3-dihydrophysalin C-3beta-O-sulfate by MTT assay. The series is classed as functional, cell-based.
The test system of series [12] is MCF7. The experiment in a line: Cytotoxicity against human MCF7 cells assessed as cell growth inhibition measured after 24 to 72 hrs in presence of 5beta,6beta-epoxy-2,3-dihydrophysalin C-3beta-O-sulfate by MTT assay. The series is classed as functional, cell-based.
For series [13], the system named is NCI-H460. Put plainly: Cytotoxicity against human NCI-H460 cells assessed as cell growth inhibition measured after 24 to 72 hrs in presence of 5beta,6beta-epoxy-2,3-dihydrophysalin C-3beta-O-sulfate by MTT assay. The series is classed as functional, cell-based.
For series [14], the system named is PC-3. Put plainly: Cytotoxicity against human PC-3 cells assessed as cell growth inhibition measured after 24 to 72 hrs in presence of 5beta,6beta-epoxy-2,3-dihydrophysalin C-3beta-O-sulfate by MTT assay. The series is classed as functional, cell-based.
In series [15] the test system is WI-38. Put plainly: Cytotoxicity against human WI-38 cells assessed as cell growth inhibition measured after 24 to 72 hrs in presence of 5beta,6beta-epoxy-2,3-dihydrophysalin C-3beta-O-sulfate by MTT assay. The series is classed as cell-based.
In series [16] the test system is NCI-H460. The experiment in a line: Cytotoxicity against human NCI-H460 cells assessed as cell growth inhibition measured after 24 to 72 hrs in presence of 2,3-dihydrophysalin F-3beta-O-sulfate by MTT assay. The series is classed as functional, cell-based.
For series [17], the system named is SF-268. The experiment in a line: Cytotoxicity against human SF-268 cells assessed as cell growth inhibition measured after 24 to 72 hrs in presence of 2,3-dihydrophysalin F-3beta-O-sulfate by MTT assay. The series is classed as functional, cell-based.
For series [18], the system named is PC-3. The experiment in a line: Cytotoxicity against human PC-3 cells assessed as cell growth inhibition measured after 24 to 72 hrs in presence of 2,3-dihydrophysalin F-3beta-O-sulfate by MTT assay. The series is classed as functional, cell-based.
Series [19] has as its system WI-38. The experiment in a line: Cytotoxicity against human WI-38 cells assessed as cell growth inhibition measured after 24 to 72 hrs in presence of 2,3-dihydrophysalin F-3beta-O-sulfate by MTT assay. The series is classed as cell-based.
Series [20] deals with MCF7. Put plainly: Cytotoxicity against human MCF7 cells assessed as cell growth inhibition measured after 24 to 72 hrs in presence of 2,3-dihydrophysalin F-3beta-O-sulfate by MTT assay. The series is classed as functional, cell-based.
Series [21] concerns PC-3. Put plainly: Cytotoxicity against human PC-3 cells assessed as cell growth inhibition measured after 24 hrs by MTT assay. The series is classed as functional, cell-based. The conditions noted are these: PC-3, 24 h.
Series [22] relates to MCF7. The experiment in a line: Cytotoxicity against human MCF7 cells assessed as cell growth inhibition measured after 24 hrs by MTT assay. The series is classed as functional, cell-based. The conditions noted are these: MCF7, 24 h.

Each structure is given as a SMILES string. pIC50: −log10 of the molar value.

For the compound `CO[C@]12CC=CC(=O)[C@]1(C)[C@H]1CC[C@@]3(O)C(=O)O[C@@]4(C)[C@H]5C[C@]6(C)[C@@H](CO[C@@]7(O[C@]34[C@H]6C7=O)[C@@H]1C[C@H]2O)C(=O)O5`, the “growth inhibition (GI)” value in the series on NCI-H460 [1], in the series with PC-3 [2], with WI-38 [3], with SF-268 [4] and in the series on MCF7 [5] was below 50% throughout.

As to `C[C@@]12C[C@H]3OC(=O)[C@@H]1CO[C@]14O[C@]5([C@H]2C1=O)[C@@](O)(CC[C@H]1[C@H]4C[C@@H](O)[C@@]2(Cl)CC=CC(=O)[C@]12C)C(=O)O[C@@]35C`, the pIC50 (in general, −log10 of the IC50, conventionally taken in molar units) in the series on WI-38 [6] was 5.41; with NCI-H460 [7], 6.22; in the series on MCF7 [8], 5.68; with PC-3 [9], 6.00; in the series with SF-268 [10], 6.10.

`C[C@@]12C[C@H]3OC(=O)[C@@H]1CO[C@]14O[C@@]5([C@H]2C1=O)[C@@]3(C)OC(=O)[C@@]5(O)CC[C@H]1[C@H]4C[C@@H](O)[C@@]2(O)CC=CC(=O)[C@]12C`: the “growth inhibition (GI)” value in the series with NCI-H460 [1], in the series on PC-3 [2], with WI-38 [3], in the series with SF-268 [4] and with MCF7 [5] was below 50% throughout.

As for `C=C1C(=O)O[C@@H]2C[C@@]1(C)[C@@H]1C(=O)[C@]3(O)O[C@@]14[C@@](O)(CC[C@H]1[C@H]3C[C@@H](O)[C@@]3(Cl)CC=CC(=O)[C@]13C)C(=O)O[C@@]24C`, the pIC50 in the series with WI-38 [6] is 5.49; with NCI-H460 [7], 6.22; in the series with MCF7 [8], 5.92; in the series on PC-3 [9], 6.10; in the series with SF-268 [10], 6.30.

As for `C[C@@]12C[C@H]3OC(=O)[C@@H]1CO[C@]14O[C@]5([C@H]2C1=O)[C@@](O)(CC[C@H]1[C@H]4C[C@H]2O[C@]24C[C@@H](OS(=O)(=O)O)CC(=O)[C@]14C)C(=O)O[C@@]35C`, the pIC50 with SF-268 [11] is 5.62; with MCF7 [12], below 5.14; in the series on NCI-H460 [13], 5.70; in the series on PC-3 [14] it was 5.59; in the series with WI-38 [15], below 5.00.

With `C=C1C(=O)O[C@@H]2C[C@@]1(C)[C@@H]1C(=O)[C@]3(O)O[C@@]14[C@@](O)(CC[C@H]1[C@H]3C[C@H]3O[C@]35C[C@@H](OS(=O)(=O)O)CC(=O)[C@]15C)C(=O)O[C@@]24C`, the negative-log IC50 (pIC50) in the series on NCI-H460 [16] is 5.70; with SF-268 [17] it was 5.62; in the series with PC-3 [18], 5.59; in the series with WI-38 [19], below 5.00; with MCF7 [20] it was below 5.14.

For `C/C(=C1/C(=O)C[C@H]2[C@@H]3[C@@H]4O[C@@H]4[C@@]4(O)CC=CC(=O)[C@]4(C)[C@H]3CC(=O)[C@]12C)[C@H]1C[C@]2(C)O[C@]2(C)C(=O)O1`, the pIC50 was below 5.00 with WI-38 [6]; 4.17 with PC-3 [21]; 5.19 in the series on NCI-H460 [7]; below 5.00 in the series on MCF7 [8]; below 4.00 with MCF7 [22]; 5.64 in the series with PC-3 [9]. Moreover, in the series on SF-268 [10], the pIC50 was 5.14.

As to `CC(=O)O[C@]12O[C@@]34[C@@H](C1=O)[C@]1(C)C[C@@H](OC(=O)[C@H]1C)[C@]3(C)OC(=O)[C@]4(O)CC[C@H]1[C@H]2C[C@H]2O[C@]23CCCC(=O)[C@]13C`, the “growth inhibition (GI)” value with NCI-H460 [1], in the series with PC-3 [2], in the series on WI-38 [3], with SF-268 [4] and with MCF7 [5] was below 50% throughout.

As for `CO[C@@H]1CC(=O)[C@]2(C)[C@H]3CC[C@@]4(O)C(=O)O[C@@]5(C)[C@H]6C[C@]7(C)[C@@H](CO[C@@]8(O[C@]45[C@H]7C8=O)[C@@H]3C[C@H]3O[C@]32C1)C(=O)O6`, the “growth inhibition (GI)” value in the series on NCI-H460 [1], in the series with PC-3 [2], in the series on WI-38 [3], in the series on SF-268 [4] and in the series on MCF7 [5] was below 50% in each case.

`C=C1C(=O)O[C@@H]2C[C@@]1(C)[C@@H]1C(=O)[C@]3(O)O[C@@]14[C@@](O)(CC[C@H]1[C@H]3C[C@H]3O[C@]35CC=CC(=O)[C@]15C)C(=O)O[C@@]24C`: the pIC50 with WI-38 [6] is 5.41; with NCI-H460 [7], 5.92; in the series on MCF7 [8], 5.77; in the series with PC-3 [9], 6.00; in the series with SF-268 [10] it was 6.05.

Regarding `C[C@@H]1C(=O)O[C@@H]2C[C@@]1(C)[C@@H]1C(=O)[C@]3(O)O[C@@]14[C@@](O)(CC[C@H]1[C@H]3C[C@H]3O[C@]35CCCC(=O)[C@]15C)C(=O)O[C@@]24C`, the “growth inhibition (GI)” value with NCI-H460 [1], with PC-3 [2], with WI-38 [3], in the series with SF-268 [4] and in the series with MCF7 [5] was below 50% in each case.

`C[C@@]12C[C@H]3OC(=O)[C@@H]1CO[C@]14O[C@@]5([C@H]2C1=O)[C@@]3(C)OC(=O)[C@@]5(O)CC[C@H]1[C@H]4C[C@H]2O[C@]23CC=CC(=O)[C@]13C`: the negative logarithm of the IC50 (pIC50) was 5.46 with WI-38 [6]; 6.00 in the series with NCI-H460 [7]; 6.22 with MCF7 [8]; 6.00 with PC-3 [9]; 6.30 in the series with SF-268 [10].

Regarding `COc1cccc2c1C(=O)c1c(O)c3c(c(O)c1C2=O)C[C@@](O)(C(=O)CO)C[C@@H]3O[C@H]1C[C@H](N)[C@H](O)[C@H](C)O1` [DOXORUBICIN], the pIC50 with SF-268 [10] was 6.30.

As to `C[C@]12C(=O)C=CCC1=CC[C@@H]1[C@@H]2CC[C@]2(O)C(=O)O[C@@]3(C)[C@H]4C[C@]5(C)[C@@H](CO[C@@]16O[C@@]32[C@H]5C6=O)C(=O)O4` [PHYSALIN B], the pIC50 was 5.48 with WI-38 [6]; 6.05 in the series on NCI-H460 [7]; 6.00 in the series on MCF7 [8]; 6.00 in the series with PC-3 [9]; 6.22 in the series on SF-268 [10].
